From paper PMC5218480 (PLoS ONE, 2017)

Tested on: MV-4-11 cells
Test: Gene expression microarray analysis (Affymetrix PrimeView) and GSEA
Assay type: cell-based, human
Set-up: RFU PODN (11730768_x_at) / Fold change /veh PODN (11730768_x_at) / RFU LINC00158 (11744669_a_at) / Fold change /veh LINC00158 (11744669_a_at) / RFU DUSP10 (11751237_a_at) / Fold change /veh DUSP10 (11751237_a_at) / RFU ID3 (11757404_x_at) / Fold change /veh ID3 (11757404_x_at) / RFU PLEKHG5 (11737974_s_at) / Fold change /veh PLEKHG5 (11737974_s_at) / RFU LRRC4B (11730491_at) / Fold change /veh LRRC4B (11730491_at) / RFU GIMAP4 (11747438_a_at) / Fold change /veh GIMAP4 (11747438_a_at) / RFU KRT8 (11758183_x_at) / Fold change /veh KRT8 (11758183_x_at) / RFU CNN1 (11734310_a_at) / Fold change /veh CNN1 (11734310_a_at) / RFU VPS37D (11726825_at) / Fold change /veh VPS37D (11726825_at) / RFU C10orf10 (11716522_x_at) / Fold change /veh C10orf10 (11716522_x_at) / RFU KIR2DL2 /// KIR2DL4 /// KIR2DL5A /// KIR2DL5B /// KIR2DS1 /// KIR2DS2 /// KIR2DS3 /// KIR2DS4 /// KIR3DL3 /// KIR3DL3 /// KIR3DS1 (11738374_at) / Fold change /veh KIR2DL2 /// KIR2DL4 /// KIR2DL5A /// KIR2DL5B /// KIR2DS1 /// KIR2DS2 /// KIR2DS3 /// KIR2DS4 /// KIR3DL3 /// KIR3DL3 /// KIR3DS1 (11738374_at) / RFU C1QL1 (11718748_at) / Fold change /veh C1QL1 (11718748_at) / RFU TMPRSS4 (11747572_a_at) / Fold change /veh TMPRSS4 (11747572_a_at) / RFU HAMP (11756126_x_at) / Fold change /veh HAMP (11756126_x_at) / RFU RNFT2 (11725882_a_at) / Fold change /veh RNFT2 (11725882_a_at) / RFU NR4A2 (11747474_a_at) / Fold change /veh NR4A2 (11747474_a_at) / RFU ABCC12 (11746883_a_at) / Fold change /veh ABCC12 (11746883_a_at) / RFU TMEM136 (11760407_x_at) / Fold change /veh TMEM136 (11760407_x_at) / RFU CLDN22 /// WWC2 (11732394_at) / Fold change /veh CLDN22 /// WWC2 (11732394_at) / RFU HLA-DPB1 (11760878_x_at) / Fold change /veh HLA-DPB1 (11760878_x_at) / RFU SPINT1 (11716480_a_at) / Fold change /veh SPINT1 (11716480_a_at) / RFU GAP43 (11754022_s_at) / Fold change /veh GAP43 (11754022_s_at) / RFU A4GNT (11735810_at) / Fold change /veh A4GNT (11735810_at) / RFU PRB3 (11715151_x_at) / Fold change /veh PRB3 (11715151_x_at) / RFU TUBB4B (11761932_at) / Fold change /veh TUBB4B (11761932_at) / RFU CAPN14 (11732068_a_at) / Fold change /veh CAPN14 (11732068_a_at) / RFU TMCC2 (11721928_a_at) / Fold change /veh TMCC2 (11721928_a_at) / RFU IRGQ (11745062_a_at) / Fold change /veh IRGQ (11745062_a_at) / RFU FAM174B (11720279_a_at) / Fold change /veh FAM174B (11720279_a_at) / RFU TMPRSS4 (11748680_a_at) / Fold change /veh TMPRSS4 (11748680_a_at) / RFU FAM212B (11763350_a_at) / Fold change /veh FAM212B (11763350_a_at) / RFU PLEKHG5 (11743358_a_at) / Fold change /veh PLEKHG5 (11743358_a_at) / RFU ZSCAN30 (11745921_a_at) / Fold change /veh ZSCAN30 (11745921_a_at) / RFU CMKLR1 (11741424_a_at) / Fold change /veh CMKLR1 (11741424_a_at) / RFU LOC101060620 /// MAPK8IP1 (11723275_at) / Fold change /veh LOC101060620 /// MAPK8IP1 (11723275_at) / RFU SPTSSB (11747773_x_at) / Fold change /veh SPTSSB (11747773_x_at) / RFU PRSS12 (11739890_at) / Fold change /veh PRSS12 (11739890_at) / RFU BIN1 (11741810_x_at) / Fold change /veh BIN1 (11741810_x_at) / RFU WNT11 (11732464_a_at) / Fold change /veh WNT11 (11732464_a_at) / RFU C10orf10 (11716521_a_at) / Fold change /veh C10orf10 (11716521_a_at) / RFU C5orf56 (11738089_at) / Fold change /veh C5orf56 (11738089_at) / RFU CYB561 (11721691_x_at) / Fold change /veh CYB561 (11721691_x_at) / RFU ANKRD19P (11752326_a_at) / Fold change /veh ANKRD19P (11752326_a_at) / RFU OR2T12 /// OR2T33 /// OR2T8 (11738714_s_at) / Fold change /veh OR2T12 /// OR2T33 /// OR2T8 (11738714_s_at) / RFU VCAN (11748164_a_at) / Fold change /veh VCAN (11748164_a_at) / RFU JSRP1 (11732532_at) / Fold change /veh JSRP1 (11732532_at) / RFU KRTAP10-11 (11738290_x_at) / Fold change /veh KRTAP10-11 (11738290_x_at) / RFU MYO3A (11730013_a_at) / Fold change /veh MYO3A (11730013_a_at) / RFU EBF3 (11725865_a_at) / Fold change /veh EBF3 (11725865_a_at) / RFU CAMK2N1 (11719241_x_at) / Fold change /veh CAMK2N1 (11719241_x_at) / RFU C5orf56 (11738088_a_at) / Fold change /veh C5orf56 (11738088_a_at) / RFU OLFML3 (11715873_a_at) / Fold change /veh OLFML3 (11715873_a_at) / RFU LOC100653217 /// NTM (11731650_a_at) / Fold change /veh LOC100653217 /// NTM (11731650_a_at) / RFU MAPK11 (11762145_a_at) / Fold change /veh MAPK11 (11762145_a_at) / RFU FIZ1 (11724087_x_at) / Fold change /veh FIZ1 (11724087_x_at) / RFU OASL (11726364_x_at) / Fold change /veh OASL (11726364_x_at) / RFU SOX15 (11748057_x_at) / Fold change /veh SOX15 (11748057_x_at) / RFU CD79A (11719716_a_at) / Fold change /veh CD79A (11719716_a_at) / RFU HIST1H1D (11736915_at) / Fold change /veh HIST1H1D (11736915_at) / RFU CASKIN2 (11723855_a_at) / Fold change /veh CASKIN2 (11723855_a_at) / RFU LOC730098 (11760151_x_at) / Fold change /veh LOC730098 (11760151_x_at) / RFU OR4N2 (11742367_at) / Fold change /veh OR4N2 (11742367_at) / RFU PRRT2 (11749266_a_at) / Fold change /veh PRRT2 (11749266_a_at) / RFU SNX32 (11753110_a_at) / Fold change /veh SNX32 (11753110_a_at) / RFU CDHR5 (11726645_a_at) / Fold change /veh CDHR5 (11726645_a_at) / RFU RCAN1 (11760418_a_at) / Fold change /veh RCAN1 (11760418_a_at) / RFU FAM167A (11723789_a_at) / Fold change /veh FAM167A (11723789_a_at) / RFU FAM26E (11764081_at) / Fold change /veh FAM26E (11764081_at) / RFU ISYNA1 (11749810_s_at) / Fold change /veh ISYNA1 (11749810_s_at) / RFU ACY1 (11761880_at) / Fold change /veh ACY1 (11761880_at) / RFU 11764098_at / Fold change /veh 11764098_at / RFU SAMD14 (11745864_x_at) / Fold change /veh SAMD14 (11745864_x_at) / RFU NPB (11741838_a_at) / Fold change /veh NPB (11741838_a_at) / RFU TMPRSS6 (11731388_a_at) / Fold change /veh TMPRSS6 (11731388_a_at) / RFU KRTAP10-2 (11738614_at) / Fold change /veh KRTAP10-2 (11738614_at) / RFU ARHGAP8 /// PRR5-ARHGAP8 (11727945_x_at) / Fold change /veh ARHGAP8 /// PRR5-ARHGAP8 (11727945_x_at) / RFU KRTAP5-7 /// NADSYN1 (11734609_at) / Fold change /veh KRTAP5-7 /// NADSYN1 (11734609_at) / RFU RASL12 (11751679_a_at) / Fold change /veh RASL12 (11751679_a_at) / RFU CDKN2B (11736163_a_at) / Fold change /veh CDKN2B (11736163_a_at) / RFU PRF1 (11729649_at) / Fold change /veh PRF1 (11729649_at) / RFU, ZNF638 /// ZNF638-IT1 / Fold change vs veh, ZNF638 /// ZNF638-IT1 / RFU, PANK3 / Fold change vs veh, PANK3 / RFU, SH3YL1 / Fold change vs veh, SH3YL1 / RFU, ZEB2 / Fold change vs veh, ZEB2 / RFU, NRIP1 / Fold change vs veh, NRIP1 / RFU, PTTG1IP / Fold change vs veh, PTTG1IP / RFU, CAPN2 / Fold change vs veh, CAPN2 / RFU, MED14 / Fold change vs veh, MED14 / RFU, SNORA58 / Fold change vs veh, SNORA58 / RFU, C1orf63 / Fold change vs veh, C1orf63 / RFU, LRRFIP1 / Fold change vs veh, LRRFIP1 / RFU, NDUFAF7 / Fold change vs veh, NDUFAF7 / RFU, SLC12A2 / Fold change vs veh, SLC12A2 / RFU, IBTK / Fold change vs veh, IBTK / RFU, ESF1 / Fold change vs veh, ESF1 / Fold change vs veh, TMEM50B / RFU, TAOK1 / Fold change vs veh, TAOK1 / RFU, ACBD3 / Fold change vs veh, ACBD3 / RFU, TMA16 / Fold change vs veh, TMA16 / RFU, RWDD3 / Fold change vs veh, RWDD3 / RFU, BCAT1 / Fold change vs veh, BCAT1 / RFU, EDEM3 / Fold change vs veh, EDEM3 / RFU, TMEM33 / Fold change vs veh, TMEM33 / RFU, WDR75 / Fold change vs veh, WDR75 / RFU, AHCTF1 / Fold change vs veh, AHCTF1 / RFU, TFRC / Fold change vs veh, TFRC / RFU, ZDHHC17 / Fold change vs veh, ZDHHC17 / RFU, NOM1 / Fold change vs veh, NOM1 / RFU, ARL8B / Fold change vs veh, ARL8B / RFU, ZBTB11 / Fold change vs veh, ZBTB11 / RFU, TAMM41 / Fold change vs veh, TAMM41 / RFU, KIAA1704 /// LOC100996395 / Fold change vs veh, KIAA1704 /// LOC100996395 / RFU, ING1 / Fold change vs veh, ING1 / RFU, TRMT61B / Fold change vs veh, TRMT61B / RFU, FUBP3 / Fold change vs veh, FUBP3 / RFU, TP53 / Fold change vs veh, TP53 / RFU, TNKS2 / Fold change vs veh, TNKS2 / RFU, ZFP14 / Fold change vs veh, ZFP14 / RFU, ACTR2 / Fold change vs veh, ACTR2 / RFU, PPP3R1 / Fold change vs veh, PPP3R1 / RFU, PIK3R1 / Fold change vs veh, PIK3R1 / RFU, HNRNPA1 / Fold change vs veh, HNRNPA1 / RFU, RNF170 / Fold change vs veh, RNF170 / RFU, ZNF28 / Fold change vs veh, ZNF28 / RFU, RNGTT / Fold change vs veh, RNGTT / RFU, OGT / Fold change vs veh, OGT / RFU, BRD1 / Fold change vs veh, BRD1 / RFU, MARS / Fold change vs veh, MARS / RFU, ZNF655 / Fold change vs veh, ZNF655 / RFU, FAHD1 / Fold change vs veh, FAHD1 / RFU, BDP1 / Fold change vs veh, BDP1 / RFU, LRRCC1 / Fold change vs veh, LRRCC1 / RFU, ARID1A / Fold change vs veh, ARID1A / RFU, ZNF146 / Fold change vs veh, ZNF146 / RFU, ZNF330 / Fold change vs veh, ZNF330 / RFU, GPN3 / Fold change vs veh, GPN3 / RFU, C9orf123 / Fold change vs veh, C9orf123 / RFU, N4BP2L2 / Fold change vs veh, N4BP2L2 / RFU, ARFIP1 / Fold change vs veh, ARFIP1 / RFU, FAM179B / Fold change vs veh, FAM179B / RFU, BCL10 / Fold change vs veh, BCL10 / RFU, UHRF1BP1L / Fold change vs veh, UHRF1BP1L / RFU, BET1 / Fold change vs veh, BET1 / RFU, CNOT2 / Fold change vs veh, CNOT2 / RFU, ZNF268 / Fold change vs veh, ZNF268 / Fold change vs veh, ZNF507 / RFU, DGCR2 / Fold change vs veh, DGCR2 / RFU, WDSUB1 / Fold change vs veh, WDSUB1 / Fold change vs veh, HSP90B1 /// MIR3652 / RFU, ADSS / Fold change vs veh, ADSS / RFU, GK / Fold change vs veh, GK / RFU, ZNF148 / Fold change vs veh, ZNF148 / RFU, TAF9 / Fold change vs veh, TAF9 / RFU, SLC1A5 / Fold change vs veh, SLC1A5 / RFU, SLMO2 / Fold change vs veh, SLMO2 / RFU, ABCC4 / Fold change vs veh, ABCC4 / RFU, LOC101060439 /// RAP1B / Fold change vs veh, LOC101060439 /// RAP1B / RFU, RFX7 / Fold change vs veh, RFX7 / RFU, GTPBP10 / Fold change vs veh, GTPBP10 / RFU, CNEP1R1 / Fold change vs veh, CNEP1R1 / RFU, BIVM-ERCC5 /// ERCC5 / Fold change vs veh, BIVM-ERCC5 /// ERCC5 / RFU, ILF3 / Fold change vs veh, ILF3 / RFU 11762660_at / Fold change /veh 11762660_at / RFU VCAN (11757783_s_at) / Fold change /veh VCAN (11757783_s_at) / RFU DDX43 (11728927_at) / Fold change /veh DDX43 (11728927_at) / RFU KRT8 (11758188_x_at) / Fold change /veh KRT8 (11758188_x_at) / RFU NKD1 (11759106_at) / Fold change /veh NKD1 (11759106_at) / RFU SRD5A1 (11742802_a_at) / Fold change /veh SRD5A1 (11742802_a_at) / RFU TPSAB1 /// TPSB2 (11721975_s_at) / Fold change /veh TPSAB1 /// TPSB2 (11721975_s_at) / RFU GSTM3 (11746129_a_at) / Fold change /veh GSTM3 (11746129_a_at) / RFU IL23R (11737362_x_at) / Fold change /veh IL23R (11737362_x_at) / RFU TMEM51 (11727254_a_at) / Fold change /veh TMEM51 (11727254_a_at) / RFU PIWIL2 (11732686_x_at) / Fold change /veh PIWIL2 (11732686_x_at) / RFU ORM1 (11744905_x_at) / Fold change /veh ORM1 (11744905_x_at) / RFU CCDC152 (11743942_at) / Fold change /veh CCDC152 (11743942_at) / RFU ECM1 (11717891_a_at) / Fold change /veh ECM1 (11717891_a_at) / RFU IL23R (11748794_a_at) / Fold change /veh IL23R (11748794_a_at) / RFU TNFAIP8L3 (11732012_x_at) / Fold change /veh TNFAIP8L3 (11732012_x_at) / RFU MBOAT4 (11741988_at) / Fold change /veh MBOAT4 (11741988_at) / RFU 11764193_at / Fold change /veh 11764193_at / RFU TMEM53 (11763286_at) / Fold change /veh TMEM53 (11763286_at) / RFU MAGEB2 (11727129_at) / Fold change /veh MAGEB2 (11727129_at) / RFU TMEM200A (11744735_a_at) / Fold change /veh TMEM200A (11744735_a_at) / RFU CCDC152 (11751479_a_at) / Fold change /veh CCDC152 (11751479_a_at) / RFU FAM211A (11726209_a_at) / Fold change /veh FAM211A (11726209_a_at) / RFU RGS16 (11746705_a_at) / Fold change /veh RGS16 (11746705_a_at) / RFU VCAN (11755009_s_at) / Fold change /veh VCAN (11755009_s_at) / RFU RHOB (11743442_s_at) / Fold change /veh RHOB (11743442_s_at) / RFU RGS16 (11720943_a_at) / Fold change /veh RGS16 (11720943_a_at) / RFU RGS16 (11720944_at) / Fold change /veh RGS16 (11720944_at) / RFU, VPS4B / Fold change vs veh, VPS4B / RFU, CREB1 / Fold change vs veh, CREB1 / RFU, DNAJC13 / Fold change vs veh, DNAJC13 / RFU, GNAQ / Fold change vs veh, GNAQ / RFU, CDK5R1 / Fold change vs veh, CDK5R1 / RFU, ZRANB3 / Fold change vs veh, ZRANB3 / RFU, CUL4A / Fold change vs veh, CUL4A / RFU, CCNY / Fold change vs veh, CCNY / RFU, UFL1 / Fold change vs veh, UFL1 / RFU, COG3 / Fold change vs veh, COG3 / RFU, DIAPH2 / Fold change vs veh, DIAPH2 / RFU, SKA2 / Fold change vs veh, SKA2 / RFU, AFF3 / Fold change vs veh, AFF3 / RFU, LMF1 / Fold change vs veh, LMF1 / RFU, IPO11 / Fold change vs veh, IPO11 / RFU, DFFB / Fold change vs veh, DFFB / RFU, FOXP1 / Fold change vs veh, FOXP1 / RFU, CARD8 / Fold change vs veh, CARD8 / RFU, STRN3 / Fold change vs veh, STRN3 / RFU, ADK / Fold change vs veh, ADK / RFU, RASSF2 / Fold change vs veh, RASSF2 / RFU, WIPF1 / Fold change vs veh, WIPF1 / RFU, LARP1B / Fold change vs veh, LARP1B / RFU, RASA1 / Fold change vs veh, RASA1 / RFU, RB1 / Fold change vs veh, RB1 / RFU, PPFIA1 / Fold change vs veh, PPFIA1 / RFU, MAT2A / Fold change vs veh, MAT2A / RFU, CCT5 / Fold change vs veh, CCT5 / RFU, WDR92 / Fold change vs veh, WDR92 / RFU, CUX1 / Fold change vs veh, CUX1 / RFU, TTC7A / Fold change vs veh, TTC7A / RFU, TMEM135 / Fold change vs veh, TMEM135 / RFU, DEPTOR / Fold change vs veh, DEPTOR / RFU, CPM / Fold change vs veh, CPM / RFU, DNAJB6 / Fold change vs veh, DNAJB6 / RFU, CACNA2D3 / Fold change vs veh, CACNA2D3 / RFU, DTX4 / Fold change vs veh, DTX4 / RFU, TFCP2 / Fold change vs veh, TFCP2 / RFU, GMCL1 /// GMCL1P1 / Fold change vs veh, GMCL1 /// GMCL1P1 / RFU, AEBP2 / Fold change vs veh, AEBP2 / RFU, SNHG1 /// SNORD22 /// SNORD25 /// SNORD26 /// SNORD27 /// SNORD28 /// SNORD29 /// SNORD31 / Fold change vs veh, SNHG1 /// SNORD22 /// SNORD25 /// SNORD26 /// SNORD27 /// SNORD28 /// SNORD29 /// SNORD31 / Fold change (Aza/veh), C12orf56 (ProbeSet 11735607_a_at) / Fold change (ACY-1035/veh), C12orf56 (ProbeSet 11735607_a_at) / Fold change (Aza/veh), FGFR1OP (ProbeSet 11751329_s_at) / Fold change (ACY-1035/veh), FGFR1OP (ProbeSet 11751329_s_at) / Fold change (Aza/veh), VPS36 (ProbeSet 11739960_a_at) / Fold change (ACY-1035/veh), VPS36 (ProbeSet 11739960_a_at) / RFU SYPL1 (11715823_x_at) / Fold change /veh SYPL1 (11715823_x_at) / RFU IGFBP7 (11715501_s_at) / Fold change /veh IGFBP7 (11715501_s_at) / RFU REEP3 (11722064_at) / Fold change /veh REEP3 (11722064_at) / RFU IGLL1 (11728026_x_at) / Fold change /veh IGLL1 (11728026_x_at): dose or concentration left out as unconfirmed
Conditions: MV-4-11 cells, 48 hours

## Nc1ncn([C@@H]2O[C@H](CO)[C@@H](O)[C@H]2O)c(=O)n1 [azacitidine]
  Fold change /veh VCAN (11755009_s_at): 1.97
